Source: patent US20040106135A1, “Assay for PPAR ligand dependent gene modulation” (priority 2002, published 2004)

How the values were obtained:
Type in all cases: cell-based, human
HepG2 cells = assay: Transcriptional profiling by DNA microarray, HepG2 cells; settings: endogenous levels of PPARα
Text: Threshold cutoffs were set at fold change >1.4; p<0.01; and statistically significant in at least 2 experiments. The genes fatty acid CoA ligase 2 (FACL2), palmitoyl acyl-CoA oxidase 1 (ACOX1), and carnitine palmitoyl acyl-CoA transferase (CPT1A) are included for comparison based on published reports that they are PPARα responsive genes in HepG2 cells over expressing PPARα (Hsu et al., (2001) J. Biol. Chem. 276:27950-8; Lawrence et al., (2001) J. Biol. Chem. 276:31521-7).
Expression profiling: Expression profiling of RNA samples was performed essentially as described (Lockhart et al., (1996) Nat. Biotechnol. 14:1675-80) using the Affymetrix human U95Av2 array. Briefly, RNA was isolated from 100 mm cell culture dishes, DNased, and 15 μg used as a template for double stranded cDNA synthesis according to standard protocols (Invitrogen). […] The resultant cRNA products were purified using RNeasy columns (Qiagen), pooled, and quantitated spectrophotometrically. […]
(§1) Data Analysis: Affymetrix CEL files from GeneChip 4.0 (Affymetrix) were imported into Resolver 2.0 under an empirically derived Affymetrix error model (Rosetta Inpharmatics). […] Accordingly, the statistical significance (P-value) of a given expression data point takes into account the underlying error associated with the Affymetrix transcript abundance measurements as determined by this platform-specific error model. […]

LNCaP cells = assay: Transcriptional profiling by DNA microarray, LNCaP cells
Description: Expression profiling: Expression profiling of RNA samples was performed essentially as described (Lockhart et al., (1996) Nat. Biotechnol. 14:1675-80) using the Affymetrix human U95Av2 array. Briefly, RNA was isolated from 100 mm cell culture dishes, DNased, and 15 μg used as a template for double stranded cDNA synthesis according to standard protocols (Invitrogen). Reverse transcription was primed using a T7-modified oligo-dT primer (5-[…]-d(T)24-3′) (SEQ ID NO: 1). In vitro transcription was then performed on each double stranded cDNA synthesis, according to the manufacturer's (Enzo Diagnostics) instructions. The resultant cRNA products were purified using RNeasy columns (Qiagen), pooled, and quantitated spectrophotometrically. For each sample, 20 μg of in vitro transcribed cRNA was fragmented by heating the sample to 94° C. in the presence of 40 mM Tris-acetate, pH 8.1, 100 mM potassium acetate, and 30 mM magnesium acetate. […]
as §1

[1] = tested on: ADRP mRNA in HK-2 cells (endogenous PPARα); assay: ADRP mRNA induction in HK-2 cells (real-time RT-PCR); settings: 100 nM GW9578
Description: Values were normalized to 18S rRNA levels.
Cell culture: The following cell lines were obtained from American Type Culture Collection (ATCC) and cultured in the recommended medium for each cell type: HepG2, HK-2, Caki-1, LNCaP (CloneFGC), SW872, and ACHN. PPARα compounds were prepared to a 500× stock in DMSO; corresponding control cells received an equal volume of vehicle (0.2% v/v).
Real-time PCR: Fluorescence-based real-time PCR was performed essentially as described (Abbaszade et al., (1999) J. Biol. Chem. 274:23443-23450). […] Taqman-based real-time PCR expression profiling was performed using 25 ng of each cDNA according to the manufacturer's (PE Biosystems) instructions with fluorescence being monitored in real-time with an ABI Prism 7700 (PE Biosystems). Relative expression levels were determined essentially as described (Gibson et al., (1996) Genome Res. 6:995-1001) using standard curves for each transcript. Relative abundance was then determined from these standard curves, subtracting mRNA levels obtained from negative control reactions performed in the absence of reverse transcriptase, and normalized to 18S rRNA levels. […]

## CCCCCCCN(CCc1ccc(SC(C)(C)C(=O)O)cc1)C(=O)Nc1ccc(F)cc1F [GW9578, ureido-thioisobutyric acid]
HepG2 cells
  Response of PPARα responsive genes (FACL2, CPT1, ACOX1) in HepG2 cells: No response
LNCaP cells
  Changes in gene expression in LNCaP cells: only minor changes
[1]
  Time to near maximal increase of ADRP mRNA: ≤ 2 h
